Reference: ChEMBL document CHEMBL1150520, “Analogs of UK 14,304: Structural features responsible for 2 adrenoceptor activity” (Bioorg Med Chem Lett, 1995)

Experiments:
[1] = biological target: T1, Adrenergic receptor alpha-1 (Homo sapiens, UniProt P35348+P25100+P35368); test: Binding affinity for Alpha-1 adrenergic receptor of human cerebral cortex membrane; type: tissue-based
T1 sequence (P35348 whole entry): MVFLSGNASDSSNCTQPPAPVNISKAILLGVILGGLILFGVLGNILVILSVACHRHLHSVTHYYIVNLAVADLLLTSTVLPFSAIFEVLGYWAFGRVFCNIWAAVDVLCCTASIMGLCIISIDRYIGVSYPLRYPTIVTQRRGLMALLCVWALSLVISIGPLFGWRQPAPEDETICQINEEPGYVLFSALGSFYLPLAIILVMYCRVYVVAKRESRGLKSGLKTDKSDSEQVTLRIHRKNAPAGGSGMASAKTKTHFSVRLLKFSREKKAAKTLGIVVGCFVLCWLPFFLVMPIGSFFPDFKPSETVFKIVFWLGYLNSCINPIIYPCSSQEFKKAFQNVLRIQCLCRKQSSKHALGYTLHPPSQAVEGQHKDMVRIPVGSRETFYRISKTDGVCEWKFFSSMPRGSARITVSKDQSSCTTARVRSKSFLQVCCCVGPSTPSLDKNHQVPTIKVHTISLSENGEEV
T1 sequence (P25100 whole entry): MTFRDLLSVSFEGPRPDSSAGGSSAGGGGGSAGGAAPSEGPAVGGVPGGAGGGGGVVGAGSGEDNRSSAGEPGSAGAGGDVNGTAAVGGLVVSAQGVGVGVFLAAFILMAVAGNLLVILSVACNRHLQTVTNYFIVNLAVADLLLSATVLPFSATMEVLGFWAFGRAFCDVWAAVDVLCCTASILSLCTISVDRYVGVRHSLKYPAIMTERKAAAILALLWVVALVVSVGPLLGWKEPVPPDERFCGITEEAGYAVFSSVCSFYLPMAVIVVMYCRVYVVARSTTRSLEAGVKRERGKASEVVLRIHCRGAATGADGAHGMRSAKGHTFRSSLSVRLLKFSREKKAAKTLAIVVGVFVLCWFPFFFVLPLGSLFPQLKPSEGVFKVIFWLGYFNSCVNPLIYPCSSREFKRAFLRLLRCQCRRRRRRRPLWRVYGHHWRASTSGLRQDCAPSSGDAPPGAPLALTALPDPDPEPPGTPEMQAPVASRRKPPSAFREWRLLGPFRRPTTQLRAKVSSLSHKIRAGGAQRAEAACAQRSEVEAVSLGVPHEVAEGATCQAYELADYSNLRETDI
T1 sequence (P35368 whole entry): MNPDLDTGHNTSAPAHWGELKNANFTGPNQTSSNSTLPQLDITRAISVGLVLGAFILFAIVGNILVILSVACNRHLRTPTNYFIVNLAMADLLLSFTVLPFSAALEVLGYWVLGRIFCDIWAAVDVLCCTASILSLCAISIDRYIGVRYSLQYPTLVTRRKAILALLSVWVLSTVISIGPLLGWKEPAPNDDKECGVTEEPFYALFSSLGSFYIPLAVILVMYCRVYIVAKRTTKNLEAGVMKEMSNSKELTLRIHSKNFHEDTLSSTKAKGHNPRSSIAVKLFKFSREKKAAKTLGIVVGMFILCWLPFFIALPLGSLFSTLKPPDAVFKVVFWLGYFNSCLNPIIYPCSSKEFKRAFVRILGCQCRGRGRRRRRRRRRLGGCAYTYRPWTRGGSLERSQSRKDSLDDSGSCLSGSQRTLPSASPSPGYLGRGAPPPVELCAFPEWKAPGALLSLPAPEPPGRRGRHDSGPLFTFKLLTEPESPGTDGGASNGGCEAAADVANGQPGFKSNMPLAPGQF

[2] = biological target: T2, Adrenergic receptor alpha-2 (Homo sapiens, UniProt P08913+P18825+P18089); test: Binding affinity for Alpha-2 adrenergic receptor of CHO-C10 membrane preparation; parameters: species or system Cricetulus griseus
T2 sequence (P08913 whole entry): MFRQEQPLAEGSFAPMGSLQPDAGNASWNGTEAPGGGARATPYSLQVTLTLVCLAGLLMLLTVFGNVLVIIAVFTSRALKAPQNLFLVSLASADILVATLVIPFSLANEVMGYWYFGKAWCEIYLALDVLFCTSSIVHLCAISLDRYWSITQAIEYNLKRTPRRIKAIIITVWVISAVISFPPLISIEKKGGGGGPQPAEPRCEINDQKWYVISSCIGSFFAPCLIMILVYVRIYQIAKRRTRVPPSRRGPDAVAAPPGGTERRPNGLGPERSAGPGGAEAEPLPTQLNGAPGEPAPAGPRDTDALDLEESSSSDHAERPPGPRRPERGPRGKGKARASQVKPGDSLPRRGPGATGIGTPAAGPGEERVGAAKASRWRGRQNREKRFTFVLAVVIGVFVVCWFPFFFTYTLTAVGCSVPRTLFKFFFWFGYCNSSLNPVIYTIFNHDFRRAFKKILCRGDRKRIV
T2 sequence (P18825 whole entry): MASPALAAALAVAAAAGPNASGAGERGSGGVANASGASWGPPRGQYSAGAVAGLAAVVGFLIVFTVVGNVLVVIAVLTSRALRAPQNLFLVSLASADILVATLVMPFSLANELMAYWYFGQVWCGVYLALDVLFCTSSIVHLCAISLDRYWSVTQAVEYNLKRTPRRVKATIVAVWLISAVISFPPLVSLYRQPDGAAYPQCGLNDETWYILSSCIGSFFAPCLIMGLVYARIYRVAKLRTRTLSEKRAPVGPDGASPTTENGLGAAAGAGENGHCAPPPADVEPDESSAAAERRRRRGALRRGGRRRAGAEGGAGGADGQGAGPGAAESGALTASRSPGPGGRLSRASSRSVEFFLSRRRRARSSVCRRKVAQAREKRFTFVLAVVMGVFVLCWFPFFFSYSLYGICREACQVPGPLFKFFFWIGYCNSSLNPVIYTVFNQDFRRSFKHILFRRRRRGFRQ
T2 sequence (P18089 whole entry): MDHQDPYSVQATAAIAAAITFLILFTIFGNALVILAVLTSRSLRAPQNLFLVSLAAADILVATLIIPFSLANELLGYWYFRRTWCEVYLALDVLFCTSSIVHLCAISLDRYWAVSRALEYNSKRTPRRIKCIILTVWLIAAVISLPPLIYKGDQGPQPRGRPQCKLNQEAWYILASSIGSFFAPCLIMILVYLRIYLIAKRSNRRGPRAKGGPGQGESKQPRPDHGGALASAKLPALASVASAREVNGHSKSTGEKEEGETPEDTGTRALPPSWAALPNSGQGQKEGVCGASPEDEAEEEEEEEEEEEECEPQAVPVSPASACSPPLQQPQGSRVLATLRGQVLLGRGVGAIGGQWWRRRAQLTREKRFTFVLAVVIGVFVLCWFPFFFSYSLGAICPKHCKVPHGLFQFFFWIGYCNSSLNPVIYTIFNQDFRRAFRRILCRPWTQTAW

| Structure (SMILES) | Ki [1] | Ki [2] |
| --- | --- | --- |
| CN(C1=NCCN1)c1ccc2c(c1)OCCO2 | 30 µM | 0.18 µM |
| Cc1c(NC2=NCCN2)ccc2c1NCCO2 | – | 0.0012 µM |
| C/N=C(\NC)Nc1ccc2nccnc2c1Br | 10 µM | 5.3 µM |
| c1cc2c(cc1NC1=NCCN1)OCCO2 | 2.4 µM | – |
| Cc1c(NC2=NCCN2)ccc2c1NCCN2 | 8.9 µM | 0.0096 µM |
| c1cnc2cc(NC3=NCCN3)ccc2n1 | – | 0.041 µM |
| Cc1c(NC2=NCCN2)ccc2c1OCCO2 | 0.13 µM | 0.00025 µM |
| Cc1ccccc1N=C1NCCN1 | 2.5 µM | 0.0078 µM |
| COc1ccc(NC2=NCCN2)c(C)c1OC | 1.5 µM | 0.0052 µM |
| N=C(N)Nc1ccc2nccnc2c1Br | 17 µM | 0.041 µM |
